25 compounds from patent US9765092B2, “Tricyclic piperidine compounds” (ACTELION PHARMACEUTICALS LTD, priority 2013, dated 2017) can be followed below.

Broadly, the IC50 is the concentration that inhibits the measured activity by half. High values mean weaker potency in that assay, low ones greater potency in that assay.

The first experiment deals with human TPH1 (Homo sapiens (Human), UniProt P17752). Briefly: Biochemical in vitro assay using fluorescence readout (TPH1 inhibition). To be noted: full length human TPH1, 40 μM L-tryptophan, 15° C., 60 minutes, fluorescence at 540 nm; mean if determined several times.
Sequence of human TPH1 (P17752 whole entry): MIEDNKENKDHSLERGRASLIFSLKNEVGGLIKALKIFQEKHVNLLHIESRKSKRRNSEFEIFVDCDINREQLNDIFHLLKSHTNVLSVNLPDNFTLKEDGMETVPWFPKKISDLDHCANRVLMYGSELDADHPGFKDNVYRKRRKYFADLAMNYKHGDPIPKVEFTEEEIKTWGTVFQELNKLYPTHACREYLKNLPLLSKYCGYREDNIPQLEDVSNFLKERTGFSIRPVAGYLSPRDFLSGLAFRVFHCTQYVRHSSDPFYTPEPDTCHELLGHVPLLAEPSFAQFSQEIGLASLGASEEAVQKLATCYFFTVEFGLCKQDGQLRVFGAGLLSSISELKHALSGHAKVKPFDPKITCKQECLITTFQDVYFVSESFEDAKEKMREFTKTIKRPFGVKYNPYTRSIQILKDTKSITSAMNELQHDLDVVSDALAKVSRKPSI
In turn, `CNC(=O)c1ccc(OCC(=O)N2CCc3nc4sc(C)nn4c3C2c2ncc(C(=O)N(C)C)s2)c(Cl)n1` (stereo not shown) [Example 1.37.1, 2-(6-(2-((2-Chloro-6-(methylcarbamoyl)pyridin-3-yl)oxy)acetyl)-2-methyl-5,6,7,8-tetra-hydro-[1,3,4]thiadiazolo[2′,3′:2,3]imidazo[4,5-c]pyridin-5-yl)-N,N-dimethylthiazole-5-carboxamide] yielded an IC50 of 176 nM.

Take `Cc1nn2c3c(nc2s1)CCN(C(=O)COc1ccc(N2C(C)CCC2C)nc1Cl)C3c1ccc(Cl)cc1F` (stereo not shown) [Example 1.4.15, 1-(5-(4-chloro-2-fluorophenyl)-2-methyl-7,8-dihydro-[1,3,4]thiadiazolo[2′,3′:2,3]imidazo[4,5-c]pyridin-6(5H)-yl)-2-((2-chloro-6-(2,5-dimethylpyrrolidin-1-yl)pyridin-3-yl)oxy)ethanone]: the IC50 was found to be 6 nM.

`Cc1nn2c3c(nc2s1)CCN(C(=O)COc1ccc(NS(C)(=O)=O)nc1Cl)C3c1ncc(C(=O)N(C)C)s1` (stereo not shown) [Example 1.37.3, 2-(6-(2-((2-Chloro-6-(methylsulfonamido)pyridin-3-yl)oxy)acetyl)-2-methyl-5,6,7,8-tetrahydro-[1,3,4]thiadiazolo[2′,3′:2,3]imidazo[4,5-c]pyridin-5-yl)-N,N-dimethylthiazole-5-carboxamide] had an IC50 of 40 nM.

The same experiment, now with this note: human TPH1, fluorescence readout.
With `Cc1nn2c3c(nc2s1)CCN(C(=O)COc1ccc(N2CCOCC2)nc1Cl)C3c1cnc(OC(F)F)cc1C` (stereo not shown) [Example 1.15.2, 2-((2-chloro-6-morpholinopyridin-3-yl)oxy)-1-(5-(6-(difluoromethoxy)-4-methylpyridin-3-yl)-2-methyl-7,8-dihydro-[1,3,4]thiadiazolo[2′,3′:2,3]imidazo[4,5-c]pyridin-6(5H)-yl)ethanone], 7 nM corresponded to half-maximal inhibition (IC50).

Compound `CCc1nc(N2CCCS2(=O)=O)ccc1OCC(=O)N1CCc2nc3sc(CF)nn3c2C1c1ncc(C)cc1F` (stereo not shown) [Example 7.2.1, 2-((6-(1,1-dioxidoisothiazolidin-2-yl)-2-ethylpyridin-3-yl)oxy)-1-(5-(3-fluoro-5-methylpyridin-2-yl)-2-(fluoromethyl)-7,8-dihydro-[1,3,4]thiadiazolo[2′,3′:2,3]imidazo[4,5-c]pyridin-6(5H)-yl)ethanone] yielded an IC50 of 9 nM.

Take `Cc1nn2c3c(nc2s1)CCN(C(=O)COc1ccc(C(F)(F)F)cc1Cl)C3c1sc(C(=O)N(C)C)cc1F` (stereo not shown) [Example 1.24.3, 5-(6-(2-(2-chloro-4-(trifluoromethyl)phenoxy)acetyl)-2-methyl-5,6,7,8-tetrahydro-[1,3,4]thiadiazolo[2′,3′:2,3]imidazo[4,5-c]pyridin-5-yl)-4-fluoro-N,N-dimethylthiophene-2-carboxamide]: the IC50 was 8 nM.

As for `Cc1nn2c3c(nc2s1)CCN(C(=O)COc1c(Cl)nc(N2CCOCC2)c(F)c1F)C3c1ncc(C2CC2)cc1F` (stereo not shown) [Example 1.14.11, 2-((2-chloro-4,5-difluoro-6-morpholinopyridin-3-yl)oxy)-1-(5-(5-cyclopropyl-3-fluoropyridin-2-yl)-2-methyl-7,8-dihydro-[1,3,4]thiadiazolo[2′,3′:2,3]imidazo[4,5-c]pyridin-6(5H)-yl)ethanone], inhibition was half-maximal at 122 nM (IC50).

On to `N#Cc1ccc(OCC(=O)N2CCc3nc4sc(C5CC5)nn4c3C2c2ccc(Cl)cc2F)c(Cl)c1` (stereo not shown) [Example 4.1.2, 3-chloro-4-(2-(5-(4-chloro-2-fluorophenyl)-2-cyclopropyl-7,8-dihydro-[1,3,4]thiadiazolo-[2′,3′:2,3]imidazo[4,5-c]pyridin-6(5H)-yl)-2-oxoethoxy)benzonitrile], for which it took 23 nM to reach half-maximal inhibition (IC50).

The compound `Cc1nn2c3c(nc2s1)CCN(C(=O)COc1ccnc2c(C)c(Cl)ccc12)C3c1ccc(Cl)cc1F` (stereo not shown) [Example 1.4.64, 1-(5-(4-chloro-2-fluorophenyl)-2-methyl-7,8-dihydro-[1,3,4]thiadiazolo[2′,3′:2,3]imidazo[4,5-c]pyridin-6(5H)-yl)-2-((7-chloro-8-methylquinolin-4-yl)oxy)ethan-1-one] registered a half-inhibitory concentration (IC50) of 255 nM.

Take `COc1ccc(C2c3c(nc4sccn34)CCN2C(=O)COc2ccc(CN3CCOCC3)nc2Cl)c(F)c1` (stereo not shown) [Example 6.3.2, 2-((2-chloro-6-(morpholinomethyl)pyridin-3-yl)oxy)-1-(5-(2-fluoro-4-methoxyphenyl)-7,8-dihydrothiazolo-[2′,3′:2,3]imidazo[4,5-c]pyridin-6(5H)-yl)ethanone]: the IC50 turned out to be 9 nM.

`Cc1ccc(OCC(=O)N2CCc3nc4sccn4c3C2c2cnn(-c3ccccc3)c2)cc1` (stereo not shown) [Example 6.13.3, 1-(5-(1-phenyl-1H-pyrazol-4-yl)-7,8-dihydrothiazolo-[2′,3′:2,3]imidazo[4,5-c]pyridin-6(5H)-yl)-2-(p-tolyl-oxy)ethanone] came in with an IC50 of 53 nM.

As for `CCc1nn2c3c(nc2s1)CCN(C(=O)COc1ccc(N2CCN(C)CC2)nc1Cl)C3c1ccc(Cl)cc1F` (stereo not shown) [Example 3.1.4, 1-(5-(4-chloro-2-fluorophenyl)-2-ethyl-7,8-dihydro-[1,3,4]thiadiazolo[2′,3′:2,3]imidazo[4,5-c]pyridin-6(5H)-yl)-2-((2-chloro-6-(4-methylpiperazin-1-yl)pyridin-3-yl)oxy)ethanone], the 50% inhibitory concentration (IC50) worked out at 10 nM.

With `CNC(=O)c1ccc(OCC(=O)N2CCc3nc4sccn4c3C2c2sccc2F)c(Cl)n1` (stereo not shown) [Example 6.8.3, 6-chloro-5-(2-(5-(3-fluorothiophen-2-yl)-7,8-dihydro-thiazolo[2′,3′:2,3]imidazo[4,5-c]pyridin-6(5H)-yl)-2-oxoethoxy)-N-methylpicolinamide], the IC50 stood at 9 nM.

`CNC(=O)c1cc(F)c(C2c3c(nc4sc(C)nn34)CCN2C(=O)COc2ccc(C(F)(F)F)cc2Cl)s1` (stereo not shown) [Example 1.25.2, 5-(6-(2-(2-chloro-4-(trifluoromethyl)phenoxy)acetyl)-2-methyl-5,6,7,8-tetrahydro-[1,3,4]thiadiazolo[2′,3′:2,3]imidazo[4,5-c]pyridin-5-yl)-4-fluoro-N-methylthiophene-2-carboxamide] registered a 50% inhibitory concentration (IC50) of 10 nM.

Compound `Cc1ccccc1OCC(=O)N1CCc2nc3sccn3c2C1c1cccnc1F` (stereo not shown) [Example 6.2.4, 1-(5-(2-fluoropyridin-3-yl)-7,8-dihydrothiazolo[2′,3′:2,3]-imidazo[4,5-c]pyridin-6(5H)-yl)-2-(o-tolyloxy)ethanone] had an IC50 of 266 nM.

`Cc1nn2c3c(nc2s1)CCN(C(=O)COc1cccnc1Cl)C3c1sc(C(=O)N(C)C)cc1F` (stereo not shown) [Example 1.24.5, 5-(6-(2-((2-chloropyridin-3-yl)oxy)acetyl)-2-methyl-5,6,7,8-tetrahydro-[1,3,4]thiadiazolo[2′,3′:2,3]imidazo[4,5-c]pyridin-5-yl)-4-fluoro-N,N-dimethylthiophene-2-carboxamide]: the IC50 was found to be 64 nM.

`CCc1nc(NS(C)(=O)=O)ccc1OCC(=O)N1CCc2nc3sc(C)nn3c2C1c1sc(C)nc1C` (stereo not shown) [Example 1.68.7, N-(5-(2-(5-(2,4-dimethylthiazol-5-yl)-2-methyl-7,8-dihydro-[1,3,4]thiadiazolo[2′,3′:2,3]imidazo[4,5-c]-pyridin-6(5H)-yl)-2-oxoethoxy)-6-ethylpyridin-2-yl)methanesulfonamide] gave an IC50 of 11 nM.

For the compound `Cc1nn2c3c(nc2s1)CCN(C(=O)COc1ccc(C(=O)N(C)C)nc1Cl)C3c1ccc(OC(F)F)cc1F` (stereo not shown) [Example 1.54.1, 6-chloro-5-(2-(5-(4-(difluoromethoxy)-2-fluorophenyl)-2-methyl-7,8-dihydro-[1,3,4]thiadiazolo[2′,3′:2,3]imidazo[4,5-c]pyridin-6(5H)-yl)-2-oxoethoxy)-N,N-dimethylpicolinamide], 14 nM corresponded to half-maximal inhibition (IC50).

Turning to `CCc1ncccc1OCC(=O)N1CCc2nc3sccn3c2C1c1ccc(C(F)F)cc1F` (stereo not shown) [Example 6.16.1, 1-(5-(4-(difluoromethyl)-2-fluorophenyl)-7,8-dihydro-thiazolo[2′,3′:2,3]imidazo[4,5-c]pyridin-6(5H)-yl)-2-((2-ethylpyridin-3-yl)oxy)ethanone], half-maximal inhibition (IC50) was put at 14 nM. This lies in the double-digit nanomolar range.

The compound `Cc1noc(C)c1C1c2c(nc3sccn23)CCN1C(=O)COc1ccc(C(F)(F)F)cc1Cl` (stereo not shown) [Example 6.5.3, 2-(2-chloro-4-(trifluoromethyl)phenoxy)-1-(5-(3,5-di-methylisoxazol-4-yl)-7,8-dihydrothiazolo[2′,3′:2,3]-imidazo[4,5-c]pyridin-6(5H)-yl)ethanone] yielded an IC50 of 85 nM.

Consider `Cc1nn2c3c(nc2s1)CCN(C(=O)COc1ccc(NS(C)(=O)=O)nc1Cl)C3c1sc(C(C)C)nc1C` (stereo not shown) [Example 1.73.1, N-(6-chloro-5-(2-(5-(2-isopropyl-4-methylthiazol-5-yl)-2-methyl-7,8-dihydro-[1,3,4]thiadiazolo[2′,3′:2,3]imidazo[4,5-c]pyridin-6(5H)-yl)-2-oxoethoxy)pyridin-2-yl)methanesulfonamide], for which the concentration for half-maximal inhibition (IC50) is 60 nM.

For the compound `Cc1nn2c3c(nc2s1)CCN(C(=O)COc1ccc(C(=O)N(C)C)nc1Cl)C3c1ccc(C)c(F)c1F` (stereo not shown) [Example 1.61.1, 6-chloro-5-(2-(5-(2,3-difluoro-4-methylphenyl)-2-methyl-7,8-dihydro-[1,3,4]thiadiazolo[2′,3′:2,3]imidazo[4,5-c]pyridin-6(5H)-yl)-2-oxoethoxy)-N,N-dimethylpicolinamide], the concentration for half-maximal inhibition (IC50) worked out at 7 nM. Against the preceding compound, the IC50 is about 8.6-fold lower.

On to `Cc1nn2c3c(nc2s1)CCN(C(=O)COc1ccc(F)cc1C)C3c1ccc(C2CC2)cc1F` (stereo not shown) [Example 1.6.10, 1-(5-(4-cyclopropyl-2-fluorophenyl)-2-methyl-7,8-dihydro-[1,3,4]thiadiazolo[2′,3′:2,3]imidazo[4,5-c]pyridin-6(5H)-yl)-2-(4-fluoro-2-methylphenoxy)ethanone], for which 6 nM corresponded to half-maximal inhibition (IC50).

As for `Cc1nn2c3c(nc2s1)CCN(C(=O)C1(Oc2ccc(NS(C)(=O)=O)nc2Cl)CC1)C3c1ccc(Cl)cc1F` (stereo not shown) [Example 1.4.54, N-(6-chloro-5-(1-(5-(4-chloro-2-fluorophenyl)-2-methyl-5,6,7,8-tetrahydro-[1,3,4]thiadiazolo[2′,3′:2,3]imidazo[4,5-c]pyridine-6-carbonyl)cyclopropoxy)pyridin-2-yl)methanesulfonamide], the IC50 was determined as 37 nM. Against the preceding compound, the IC50 is about 6.2-fold higher.

Consider `CCc1cc(F)ccc1OCC(=O)N1CCc2nc3sccn3c2C1c1ccc(OC)cc1F` (stereo not shown) [Example 6.3.4, 2-(2-ethyl-4-fluorophenoxy)-1-(5-(2-fluoro-4-methoxyphenyl)-7,8-dihydrothiazolo[2′,3′:2,3]-imidazo[4,5-c]pyridin-6(5H)-yl)ethanone], for which the midpoint of inhibition, the IC50, lay at 8 nM. Against the preceding compound, the IC50 is about 4.6-fold lower.
